Assay results published in patent US20260083865A1, “PROSTATE SPECIFIC MEMBRANE ANTIGEN (PSMA) LIGANDS AND USE THEREOF” (priority 2022, published 2026).
Read-outs that look alike come from different tables or passages of the source. Numbered stars: 1 amine (or outer) side, 2 acyl side, 3 side chain; on linkers, the order of the positions; unused ones are H or OH. Bridge positions count the residues as written; N and C are the ends. Square brackets hold non-standard residues; d marks the D form. Peptide text beside a SMILES is read from it. * marks the point of attachment. X3 = O=C(O)CN1CCN(CC(=O)O)CCN(CC(=O)NCCCOCCOCCOCCCN*)CCN(CC(=O)O)CC1; DOTA = O=C(O)CN1CCN(CC(=O)O)CCN(CC(=O)*)CCN(CC(=O)O)CC1; Biotin = O=C1N[C@H]2[C@H](CS[C@H]2CCCCC(=O)*)N1; Phe(4-Cl) = N[C@@H](Cc1ccc(Cl)cc1)C(=O)O; 2Nal = N[C@@H](Cc1ccc2ccccc2c1)C(=O)O; Arg(Me) = CNC(=N)NCCC[C@H](N)C(=O)O; X1 = O=C(CC1CCN([*:1])CC1)[*:2]; Lys(Me) = CNCCCC[C@H](N)C(=O)O; Suc = O=C(CCC(=O)[*:2])[*:1]; Tle = CC(C)(C)[C@H](N)C(=O)O; Nle = CCCC[C@H](N)C(=O)O; Aib = CC(C)(N)C(=O)O; βAla = NCCC(=O)O

Experiments:
[1] = target: T1, PSMA-expressing C4-2 cells (Homo sapiens, UniProt Q04609); assay: FACS binding assay (competition with 50 nM PSM-0183); conditions: C4-2 cells, read-out: pIC50 [C4-2] CAT (converted)
T1 construct: PSMA-expressing C4-2 cells (ATCC, Cat. No. CRL-3314) were cultured in RPMI-1640; host or cells: C4-2 cells
How it was run: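 C4-2 cells were incubated 1 h at 4 °C with 50 nM AF488-labelled peptide PSM-0183 plus increasing test compound concentrations, then washed twice in ice-cold buffer. Median fluorescence in the AF488 channel was read by flow cytometry. IC50/pIC50 was derived by 4PL fitting of MFI versus concentration.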

[2] = target: T2, Fc-fusion protein of human PSMA (hPSMA-Fc) (Homo sapiens, UniProt Q04609); assay: Surface plasmon resonance assay (Biacore T200, single cycle kinetic); assay type: binding; conditions: read-out: pKD CAT (converted)
T2 construct: purchased Acro Biosystems PSA-H5264
How it was run: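 hPSMA-Fc was captured (~1000 RU) on an Fc-binding-peptide CM5 chip, and compounds were run in single cycle kinetic mode at 25° C in HBST with 0.1% DMSO. Double-blank-corrected sensorgrams were fitted to a 1:1 Langmuir model to give KD, reported as pKD.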

[3] = pKD category for PSMA SPR activity assay, hPSMA-Fc, 25° C.

T2 sequence (Q04609 44-750 limits assumed): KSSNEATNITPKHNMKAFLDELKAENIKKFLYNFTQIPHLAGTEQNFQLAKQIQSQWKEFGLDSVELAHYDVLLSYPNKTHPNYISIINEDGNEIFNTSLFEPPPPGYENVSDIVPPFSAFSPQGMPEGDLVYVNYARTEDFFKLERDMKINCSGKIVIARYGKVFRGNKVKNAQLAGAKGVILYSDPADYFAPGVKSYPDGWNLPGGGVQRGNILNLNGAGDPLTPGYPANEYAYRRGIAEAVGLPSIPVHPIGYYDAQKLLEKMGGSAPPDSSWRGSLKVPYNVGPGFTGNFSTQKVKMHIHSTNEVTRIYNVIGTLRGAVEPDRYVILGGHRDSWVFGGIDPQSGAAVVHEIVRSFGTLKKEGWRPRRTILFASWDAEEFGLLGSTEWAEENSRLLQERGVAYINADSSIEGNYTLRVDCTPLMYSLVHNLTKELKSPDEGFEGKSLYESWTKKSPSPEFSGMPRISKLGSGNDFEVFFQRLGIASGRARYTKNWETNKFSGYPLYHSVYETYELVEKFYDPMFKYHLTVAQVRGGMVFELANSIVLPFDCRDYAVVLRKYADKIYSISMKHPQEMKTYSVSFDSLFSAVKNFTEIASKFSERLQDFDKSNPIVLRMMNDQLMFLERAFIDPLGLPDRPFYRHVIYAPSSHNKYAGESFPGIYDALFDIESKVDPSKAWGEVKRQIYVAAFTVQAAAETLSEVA
T1 sequence (Q04609 whole entry): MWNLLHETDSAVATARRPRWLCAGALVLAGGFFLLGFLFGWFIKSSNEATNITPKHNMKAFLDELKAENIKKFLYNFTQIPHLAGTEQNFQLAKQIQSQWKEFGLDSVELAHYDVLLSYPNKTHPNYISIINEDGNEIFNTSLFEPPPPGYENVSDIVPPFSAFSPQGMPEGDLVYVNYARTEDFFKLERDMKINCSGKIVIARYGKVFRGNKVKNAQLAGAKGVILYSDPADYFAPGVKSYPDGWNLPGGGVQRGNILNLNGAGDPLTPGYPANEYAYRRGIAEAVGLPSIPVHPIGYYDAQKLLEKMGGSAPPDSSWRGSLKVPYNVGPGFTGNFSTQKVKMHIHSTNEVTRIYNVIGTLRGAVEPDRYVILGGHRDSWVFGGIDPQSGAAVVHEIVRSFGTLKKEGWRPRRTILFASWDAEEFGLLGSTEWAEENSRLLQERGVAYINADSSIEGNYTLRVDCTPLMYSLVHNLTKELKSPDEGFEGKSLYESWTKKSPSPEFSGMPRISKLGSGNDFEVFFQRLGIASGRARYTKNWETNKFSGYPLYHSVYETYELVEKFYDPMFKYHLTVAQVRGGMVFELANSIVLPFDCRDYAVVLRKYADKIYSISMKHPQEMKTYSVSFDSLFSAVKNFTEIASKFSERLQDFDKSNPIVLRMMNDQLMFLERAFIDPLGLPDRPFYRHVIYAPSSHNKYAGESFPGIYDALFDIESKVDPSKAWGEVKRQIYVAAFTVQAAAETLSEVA

| Compound | IC50 ([1]; pIC50 category of FACS binding) [nM] | Kd [2, 3] [nM] | also measured |
| --- | --- | --- | --- |
| C[C@@H](O)[C@H](NC(=O)[C@@H](NC(=O)[C@@H]1CSSC[C@H](NC(=O)[C@H](Cc2ccccc2)NC(=O)C(C)(C)NC(=O)CCNC(=O)CN2CCN(CC(=O)O)CCN(CC(=O)O)CCN(CC(=O)O)CC2)C(=O)N[C@@H](CCCCN)C(=O)N[C@@H](CCCNC(=N)N)C(=O)NC(C)(C)C(=O)N[C@@H](CC(N)=O)C(=O)N1)C(C)(C)C)C(N)=O [PSM-0437, DOTA-Bal-Aib-Phe-[Cys-Lys-Arg-Aib-Asn-Cys]-Tle-Thr-NH2] ({DOTA-βAla}-[Aib]FCKR[Aib]NC[Tle]T-NH2; disulfide 3-8) | < 200 | 12.6 to 126 |  |
| CNCCCC[C@@H]1NC(=O)[C@@H](NC(=O)[C@H](Cc2ccc(Cl)cc2)NC(=O)C(C)(C)NC(=O)[C@@H](NC(=O)CC2CCN(C(=O)CN3CCN(CC(=O)O)CCN(CC(=O)O)CCN(CC(=O)O)CC3)CC2)C(C)(C)C)CSSC[C@@H](C(=O)N[C@H](C(=O)N[C@H](C(N)=O)[C@@H](C)O)C(C)(C)C)NC(=O)[C@H](CC(N)=O)NC(=O)C(C)(C)NC(=O)[C@H](CCCNC(=N)NC)NC1=O [PSM-0538, DOTA-Cmp-Tle-Aib-Pcf-[Cys-Lys (Mc)-Arg (Mc)-Aib-Asn-Cys]-Tle-Thr-NH2] ({DOTA}-[X1][Tle][Aib][Phe(4-Cl)]C[Lys(Me)][Arg(Me)][Aib]NC[Tle]T-NH2; disulfide 5-10) | 200 to 1260 | 126 to 501 |  |
| CC(=O)N[C@H](C(=O)NC(C)(C)C(=O)N[C@@H](Cc1ccccc1)C(=O)N[C@H]1CSSC[C@@H](C(=O)N[C@H](C(=O)N[C@H](C(N)=O)[C@@H](C)O)C(C)(C)C)NC(=O)[C@H](CC(N)=O)NC(=O)C(C)(C)NC(=O)[C@H](CCCNC(=N)N)NC(=O)[C@H](CCCCN)NC1=O)[C@@H](C)O [PSM-0178, Ac-Thr-Aib-Phe-[Cys-Lys-Arg-Aib-Asn-Cys]-Tle-Thr-NH2] (Ac-T[Aib]FCKR[Aib]NC[Tle]T-NH2; disulfide 4-9) |  |  | IC50 ([1]; FACS binding, competition with 50 nM PSM-0183, category): < 200 nM; Kd ([2]; SPR, hPSMA-Fc, single cycle kinetic, 25° C., category): < 12.6 nM |
| CCCC[C@H](NC(=O)[C@@H]1CSSC[C@H](NC(=O)[C@H](Cc2ccccc2)NC(=O)[C@H](C)NC(=O)[C@@H](NC(C)=O)[C@@H](C)O)C(=O)N[C@@H](CCCCN)C(=O)N[C@@H](CCCNC(=N)N)C(=O)NC(C)(C)C(=O)N[C@@H](CC(N)=O)C(=O)N1)C(=O)N[C@H](C(=O)N[C@@H](CC(=O)O)C(N)=O)[C@@H](C)O [PSM-0578, Ac-Thr-Ala-Phe-[Cys-Lys-Arg-Aib-Asn-Cys]-Nle-Thr-Asp-NH2] (Ac-TAFCKR[Aib]NC[Nle]TD-NH2; disulfide 4-9) |  |  | IC50 ([1]; FACS binding, category): < 200 nM; Kd ([2]; PSMA SPR assay, category): 12.6 to 126 nM |

Second part, led by results:

| IC50 ([1]; pIC50 category of FACS binding) [nM] | Kd [2, 3] [nM] | Compound | also measured |
| --- | --- | --- | --- |
| 200 to 1260 | < 12.6 | C[C@@H](O)[C@H](NC(=O)[C@@H](NC(=O)[C@@H]1CSSC[C@H](NC(=O)[C@H](Cc2ccc(Cl)cc2)NC(=O)C(C)(C)NC(=O)[C@@H](NC(=O)CC2CCN(C(=O)CN3CCN(CC(=O)O)CCN(CC(=O)O)CCN(CC(=O)O)CC3)CC2)[C@@H](C)O)C(=O)N[C@@H](CCCCNC(=O)CCCC[C@@H]2SC[C@@H]3NC(=O)N[C@@H]32)C(=O)N[C@@H](CCCNC(=N)N)C(=O)NC(C)(C)C(=O)N[C@@H](CC(N)=O)C(=O)N1)C(C)(C)C)C(N)=O [PSM-0490, DOTA-Cmp-Thr-Aib-Pcf-[Cys-Lys (Bio)-Arg-Aib-Asn-Cys]-Tle-Thr-NH2] ({DOTA}-[X1]T[Aib][Phe(4-Cl)]CK(Biotin)R[Aib]NC[Tle]T-NH2; disulfide 5-10) |  |
| 1260 to 3160 | 126 to 501 | CC(C)C[C@H](NC(=O)[C@@H]1CSSC[C@H](NC(=O)[C@H](Cc2ccccc2)NC(=O)[C@H](C)NC(=O)[C@@H](NC(=O)CCC(=O)NCCCOCCOCCOCCCNC(=O)CN2CCN(CC(=O)O)CCN(CC(=O)O)CCN(CC(=O)O)CC2)[C@@H](C)O)C(=O)N[C@@H](CCCCN)C(=O)N[C@@H](CCCNC(=N)N)C(=O)N[C@@H](C)C(=O)N[C@@H](CC(N)=O)C(=O)N1)C(N)=O [PSM-0480, DOTA-Ttds-Thr-Ala-Phe-[Cys-Lys-Arg-Ala-Asn-Cys]-Lou-NH2] ({X3-Suc}-TAFCKRANCL-NH2; disulfide 4-9) |  |
| < 200 | < 12.6 | CC(=O)N[C@H](C(=O)NC(C)(C)C(=O)N[C@@H](Cc1ccc2ccccc2c1)C(=O)N[C@H]1CSSC[C@@H](C(=O)N[C@H](C(=O)N[C@H](C(=O)N[C@@H](CC(=O)O)C(N)=O)[C@@H](C)O)C(C)(C)C)NC(=O)[C@H](CC(N)=O)NC(=O)C(C)(C)NC(=O)[C@H](CCCNC(=N)N)NC(=O)[C@H](CCCCN)NC1=O)[C@@H](C)O [PSM-0517, Ac-Thr-Aib-2Ni-[Cys-Lys-Arg-Aib-Asn-Cys]-Tle-Thr-Asp-NH2] (Ac-T[Aib][2Nal]CKR[Aib]NC[Tle]TD-NH2; disulfide 4-9) |  |
